Measured values from paper PMC3399898, “Immobilization of β-Galactosidase onto Functionalized Graphene Nano-sheets Using Response Surface Methodology and Its Analytical Applications” (PLoS ONE, 2012).

Test system: T1, Chick pea β-galactosidase (CpGAL)
T1 construct: native enzyme purified from dry seeds (local market), homogeneous on SDS-PAGE; soluble (free) form
Assay: steady-state kinetics, Lineweaver-Burk plot
Format: biochemical, Cicer arietinum
Settings: soluble enzyme; optimum pH 2.8, 60 °C printed; pH of the Km assay not stated; read-out: Soluble / ONPG
From the text: steady-state kinetics, Lineweaver-Burk plot on Chick pea β-galactosidase (CpGAL)

O=[N+]([O-])c1ccccc1O[C@@H]1O[C@H](CO)[C@H](O)[C@H](O)[C@H]1O [ONPG]
Km: 1730 µM
